Source: patent US20240262822A1, “WDR5 INHIBITORS AND MODULATORS” (Vanderbilt University, priority 2021, published 2024)

Legend:
[1] = tested on: MV4:11 human cancer cell lines; assay: Cellular viability / anti-proliferative activity, CellTiter-Glo, 5 day protocol; type: cell-based; details: Homo sapiens, MV4-11, 120 h, MV4:11 cells, 5 day incubation, read-out: GI50 for representative compounds on cellular proliferation of MV4:11 human cancer cell lines
Method: Anti-proliferative activity using MLL-harboring cell lines. MV-4-11 and K562 cells are grown in IMDM media supplemented with 10% FBS and 1% penicillin/streptomycin, Molm-13 cells are cultured in RPMI-1640 media supplemented with 10% FBS and 1% penicillin/streptomycin. Viability assays are performed by dispensing 200 cells at 7200 cells/mL into each well of an opaque 384-well plate and adding compounds at the indicated concentrations in a final volume of 32 μL and a final concentration of DMSO of 0.3% for all samples. A certain range of compound concentrations is made through a series of 2-fold dilutions starting 30 μM at the highest, total 22 dilutions. After a set incubation period, 5 day protocol, the viability of cells in each well is assessed using the CellTiter-Glo assay (Promega), read on a 96 Microplane Luminometer (Cytation 3, BioTek). Serial dilutions of each cell type are performed in all assays to generate standard curves and the final densities of cells are determined within the dynamic range of the instrument. GI50 values are calculated based on XLfit software (IDBS, Guildford, UK) with Sigmoidal Dose-Response Model. Each compound is tested in minimum of two replicates. Data are expressed as mean.

WDR5 = target: T1, WDR5 (Homo sapiens, UniProt P61964); assay: Time Resolved-Fluorescence Energy Transfer (TR-FRET) competition assay, displacement of 10mer-Thr-FAM probe from His-tagged WDR5; type: binding; details: WDR5-His tag 2 nM, 10mer-Thr-FAM 150 nM, 60 minutes at room temperature; read-out: Ki for Exemplified Compounds for Inhibition of WDR5 by TR-FRET assay
T1 construct: WDR5-His Tag (A23, residues 24-334) is expressed and purified in our lab; made in house
Text: Excess 10mer-Thr-FAM probe was utilized with His-tagged WDR5 in conjunction with a commercial anti-His antibody containing a Terbium label. The LanthaScreen™ Elite Tb-anti-HIS Antibody from ThermoFisher Scientific was used for this purpose. This Tb-anti-HIS has an excitation/emission of 340 nm and 490 nm, respectively. The 10mer-Thr-FAM probe when bound to WDR5 will undergo a FRET interaction with the Tb-anti-HIS and emit at 520 nm. […] WDR5-His Tag (A23, residues 24-334) is expressed and purified in our lab in sufficient quantities for screening. 10mer-Thr-FAM peptide is used at 150 nM. WDR5-His tag protein is used at 2 nM. A source plate is prepared using an Echo Liquid Handler, which distributes the compounds to the assay plate (white, flat-bottom; OptiPlate) in a 10-point, 5-fold dilution schemes with a top concentration of 5 μM, in a final volume of 20 μL. A final target (WDR5)/Tb-Ab concentration of 2 nM/1 nM is dispensed from appropriate stock solutions, respectively. The final DMSO concentration in each well of the assay plate is 1% or lower. The plate is covered, shielded from light, and incubated for 60 minutes at room temperature with rocking. 10mer-Thr-FAM and Anti-His terbium antibody fluorescence is then measured on a Biotek Cytation 3 at excitation wavelength of 340 nm, and emission wavelengths of 495 nm and 520 nm. Working buffer conditions contain 1× Phosphate Buffered Saline, 300 mM NaCl, 0.5 mM TCEP, 0.1% CHAPS, at pH 7.2. TR-FRET signal is plotted and IC50 and Ki values are calculated according to the formula of Wang Z. FEBS Lett (1996) 3, 245.
where […] is the concentration of the free inhibitor at 50% inhibition, [L]50 is the concentration of the free labeled ligand at 50% inhibition, [P]0 is the concentration of the free protein at 0% inhibition, Kd represents the dissociation constant of the FITC-MLL or 10mer-Thr-FAM probe for WDR5. Total fluorescence is also measured, to rule out compounds that are inherently fluorescent or able to act as quenchers in the assay. TR-FRET binding assay

SMILES | GI50 [1] [nM] | Ki (WDR5) [nM]
COc1cc2nc(C)nc(N3CCc4c(cc(Cn5ccnc5)cc4-c4cn(C)nc4C(F)(F)F)C3=O)c2cc1OC [Example 15, 7-((1H-Imidazol-1-yl)methyl)-2-(6,7-dimethoxy-2-methylquinazolin-4-yl)-5-(1-methyl-3-(trifluoromethyl)-1H-pyrazol-4-yl)-3,4-dihydroisoquinolin-1(2H)-one] | < 20 | < 0.02
COc1cc2nccc(N3CCc4c(cc(Cn5ccnc5)cc4-c4cn(C)nc4C(F)(F)F)C3=O)c2cc1OC [Example 16, 7-((1H-Imidazol-1-yl)methyl)-2-(6,7-dimethoxyquinolin-4-yl)-5-(1-methyl-3-(trifluoromethyl)-1H-pyrazol-4-yl)-3,4-dihydroisoquinolin-1(2H)-one] | < 20 | < 0.02
COc1ccc2nccc(N3CCc4c(cc(Cn5ccnc5)cc4-c4cn(C)nc4C(F)(F)F)C3=O)c2n1 [Example 17, 7-((1H-Imidazol-1-yl)methyl)-2-(6-methoxy-1,5-naphthyridin-4-yl)-5-(1-methyl-3-(trifluoromethyl)-1H-pyrazol-4-yl)-3,4-dihydroisoquinolin-1(2H)-one] | 362 | 0.03
CCc1cc2c(N3CCc4c(cc(Cn5ccnc5)cc4-c4cn(C)nc4C(F)(F)F)C3=O)ccnc2c(C(=O)NC)n1 [Example 20, 4-(7-((1H-Imidazol-1-yl)methyl)-5-(1-methyl-3-(trifluoromethyl)-1H-pyrazol-4-yl)-1-oxo-3,4-dihydroisoquinolin-2(1H)-yl)-6-ethyl-N-methyl-1,7-naphthyridine-8-carboxamide] | 290 | < 0.02
CCc1cnc2c(c1)C(N1CCc3c(cc(Cn4ccnc4)cc3-c3cn(C)nc3C(F)(F)F)C1=O)COC2 (stereo not drawn) [Example 21, 7-((1H-Imidazol-1-yl)methyl)-2-(3-ethyl-5,8-dihydro-6H-pyrano[3,4-b]pyridin-5-yl)-5-(1-methyl-3-(trifluoromethyl)-1H-pyrazol-4-yl)-3,4-dihydroisoquinolin-1(2H)-one] | < 20 | < 0.02
COc1cc2c(nc1C)CCCC2N1CCc2c(cc(Cn3ccnc3)cc2-c2cn(C)nc2C(F)(F)F)C1=O (stereo not drawn) [Example 22, 7-((1H-Imidazol-1-yl)methyl)-2-(3-methoxy-2-methyl-5,6,7,8-tetrahydroquinolin-5-yl)-5-(1-methyl-3-(trifluoromethyl)-1H-pyrazol-4-yl)-3,4-dihydroisoquinolin-1(2H)-one] | < 20 | < 0.02
COc1cc2c(N3CCc4c(cc(Cn5ccnc5)cc4-c4cn(C)nc4C(F)(F)F)C3=O)ncnc2cc1O [Example 23, 7-((1H-Imidazol-1-yl)methyl)-2-(7-hydroxy-6-methoxyquinazolin-4-yl)-5-(1-methyl-3-(trifluoromethyl)-1H-pyrazol-4-yl)-3,4-dihydroisoquinolin-1(2H)-one] | 1280 | 0.025
COc1cc2ncnc(N3CCc4c(cc(Cn5ccnc5)cc4-c4cn(C)nc4C(F)(F)F)C3=O)c2cc1OC [Example 24, 7-((1H-Imidazol-1-yl)methyl)-2-(6,7-dimethoxyquinazolin-4-yl)-5-(1-methyl-3-(trifluoromethyl)-1H-pyrazol-4-yl)-3,4-dihydroisoquinolin-1(2H)-one] | 25 | < 0.02
COCCOc1cc2ncnc(N3CCc4c(cc(Cn5ccnc5)cc4-c4cn(C)nc4C(F)(F)F)C3=O)c2cc1OC [Example 25, 7-((1H-Imidazol-1-yl)methyl)-2-(6-methoxy-7-(2-methoxyethoxy)quinazolin-4-yl)-5-(1-methyl-3-(trifluoromethyl)-1H-pyrazol-4-yl)-3,4-dihydroisoquinolin-1(2H)-one] | 310 | 0.036
COc1cc2c(N3CCc4c(cc(Cn5ccnc5)cc4-c4cn(C)nc4C(F)(F)F)C3=O)ncnc2cc1OCc1ccnn1C [Example 26, 7-((1H-Imidazol-1-yl)methyl)-2-(6-methoxy-7-((1-methyl-1H-pyrazol-5-yl)methoxy)quinazolin-4-yl)-5-(1-methyl-3-(trifluoromethyl)-1H-pyrazol-4-yl)-3,4-dihydroisoquinolin-1(2H)-one] | 76 | < 0.02
CCc1cc(OC)c2ncnc(N3CCc4c(cc(Cn5ccnc5)cc4-c4cn(C)nc4C(F)(F)F)C3=O)c2c1 [Example 27, 7-((1H-imidazol-1-yl)methyl)-2-(6-ethyl-8-methoxyquinazolin-4-yl)-5-(1-methyl-3-(trifluoromethyl)-1H-pyrazol-4-yl)-3,4-dihydroisoquinolin-1(2H)-one] | < 20 | < 0.02
CCOc1cc2c(N3CCc4c(cc(Cn5ccnc5)cc4-c4cn(C)nc4C(F)(F)F)C3=O)ncnc2cc1OC [Example 28, 7-((1H-Imidazol-1-yl)methyl)-2-(6-ethoxy-7-methoxyquinazolin-4-yl)-5-(1-methyl-3-(trifluoromethyl)-1H-pyrazol-4-yl)-3,4-dihydroisoquinolin-1(2H)-one] | 64 | < 0.02
CCOc1cc2ncnc(N3CCc4c(cc(Cn5ccnc5)cc4-c4cn(C)nc4C(F)(F)F)C3=O)c2cc1OC [Example 29, 7-((1H-Imidazol-1-yl)methyl)-2-(7-ethoxy-6-methoxyquinazolin-4-yl)-5-(1-methyl-3-(trifluoromethyl)-1H-pyrazol-4-yl)-3,4-dihydroisoquinolin-1(2H)-one] | 164 | 0.032
CCOc1cc2ncnc(N3CCc4c(cc(Cn5ccnc5)cc4-c4cn(C)nc4C(F)(F)F)C3=O)c2cc1OCC [Example 30, 7-((1H-Imidazol-1-yl)methyl)-2-(6,7-diethoxyquinazolin-4-yl)-5-(1-methyl-3-(trifluoromethyl)-1H-pyrazol-4-yl)-3,4-dihydroisoquinolin-1(2H)-one] | 47 | < 0.02
COc1cc2cnnc(N3CCc4c(cc(Cn5ccnc5)cc4-c4cn(C)nc4C(F)(F)F)C3=O)c2cc1OC [Example 31, 7-((1H-Imidazol-1-yl)methyl)-2-(6,7-dimethoxyphthalazin-1-yl)-5-(1-methyl-3-(trifluoromethyl)-1H-pyrazol-4-yl)-3,4-dihydroisoquinolin-1(2H)-one] | < 20 | < 0.02
COc1cc2c(N3CCc4c(cc(Cn5ccnc5)cc4-c4cn(C)nc4C(F)(F)F)C3=O)ncnc2cc1F [Example 32, 7-((1H-Imidazol-1-yl)methyl)-2-(7-fluoro-6-methoxyquinazolin-4-yl)-5-(l-methyl-3-(trifluoromethyl)-1H-pyrazol-4-yl)-3,4-dihydroisoquinolin-1(2H)-one] | < 20 | < 0.02
CCc1cc2c(N3CCc4c(cc(Cn5ccnc5)cc4-c4cn(C)nc4C(F)(F)F)C3=O)ccnc2c(OCCOC)n1 [Example 33, 7-((1H-Imidazol-1-yl)methyl)-2-(6-ethyl-8-(2-methoxyethoxy)-1,7-naphthyridin-4-yl)-5-(1-methyl-3-(trifluoromethyl)-1H-pyrazol-4-yl)-3,4-dihydroisoquinolin-1(2H)-one] | < 20 | < 0.02
CCc1cc2c(N3CCc4c(cc(Cn5ccnc5)cc4-c4cn(C)nc4C(F)(F)F)C3=O)ccnc2c(N2CCCC2)n1 [Example 34, 7-((1H-Imidazol-1-yl)methyl)-2-(6-ethyl-8-(pyrrolidin-1-yl)-1,7-naphthyridin-4-yl)-5-(1-methyl-3-(trifluoromethyl)-1H-pyrazol-4-yl)-3,4-dihydroisoquinolin-1(2H)-one] | 75 | < 0.02
